Data from patent EP0260606A2, “Medicament for curing neurotic disturbance or disorder comprising sialocylglycerolipid” (MECT CORPORATION, priority 1986, dated 1988).
Where “and” joins values, the source holds several entries; their conditions need not be identical. Identical values can stand only once.

Assays:
[1] = test system: neuroblastoma cell Neuro2a; test: Effect on the neuroblastoma cell Neuro2a (formation and growth of axis-cylinder process); assay type: cell-based; details: for Length of Axis-cylinder Process / Number of Axis-cylinder Process: average ± S.E.
Method: The nervous cell used in the test was neuroblastoma cell Neuro2a which is readily available and can be cultured in a relatively simple manner.
Neuro2a was floated on a culture medium containing fetal cattle serum (hereinafter referred to as FCS), the culture medium consisting of 90% of Dubecco's Modified Eagle's Medium (hereinafter referred to as MEM) and l0% of FCS and added with l00 U/ml of penicillin G and l00 µg/ml of streptomycin sulfate, and cultured in a carbon dioxide cultivator at 37°C in an air containing 5% of carbon dioxide. The containers used were 60 mm polystyrene dishes, and each of the containers was incubated with l to 2 × l0⁴ cells followed by culturing for 48 hours prior to the test. […] After the lapse of 24 hours and 48 hours, the increase in cells formed with axis-cylinder process, the increase in number of axis-cylinder processes and the elongation of the length of the axis-cylinder process were measured.
The test was conducted while using three dishes for each concentration of each test material.

[2] = test system: rat having its nigral depaminergic neuron destroyed; test: Methamphethamine-induced rotational movement after 6-hydroxydopamine lesion and fetal dopaminergic cell transplantation; assay type: in vivo; details: for Average of Rotational Movement of Rats (Average + S.D.): group average, 30 mg/kg; for Number of Rotational Movement of Rats: individual rat, 30 mg/kg every day for two weeks from transplantation, listed as Ganglioside GM1, 30 mg/kg
Text: The nigral dopaminergic neuron of the brain of a rat was chemically destroyed by injecting a very small quantity of 6-hydroxydopamine to cause motor disturbance.
After the lapse of two weeks, a fetal brain dopaminergic cell was transplanted on the Nucleus caudatus of the rat brain to try to remedy the motor disturbance.
The nigral depaminergic neuron at the left side of the brain of a female Wister family rat aged 4-weeks (Body Weight: l00 g) was destroyed by injecting a very small quantity of 6-hydroxydopamine.
After two weeks from the destruction by the administration of the drug, portions of the […] containing dopamin cells (i.e. substantia nigra and the Tegmentum at the abdomen side) were extracted from the fetal rat brain of a fetal rat of l4 to l7 days age, cut finely, and treated with trypsin. Then, the extracted tissues were incubated at 37°C for 30 minutes, and the tissues were subjected to pipetting to form a suspension. 5 µl each of the suspensions were transplanted on two sites of the Nucleus caudatus of the destructed side, the total of l0 µl (containing about l0⁵ cells) being transplanted.
The rotational movements caused by administration of methamphethamine were examined at the time point before 2 weeks of the transplantation (- 2W), at the time point before one week of the transplantation (- lW) and at the time point after two weeks of the transplantation (2W). The number of rotational movements within one minute were counted at l0 minute intervals after six administrations of methamphethamine, and the total number of rotational movements counted for the six times was averaged to find the mean rotational movement. As controls, the numbers of rotational movements of the rats administered, respectively, with a ganglioside mixture and GM₁ ganglioside were counted.

[3] = - 1W (before transplantation and dosing)
[4] = - 2W (before transplantation and dosing)

## (NAcNeu(α2-8) NAcNeu(α2-3))-Gal(ßl-3)GalNAc(ßl-4)(NAcNeu(α2-8)NAcNeu(α-2-3))-Gal(ßl-4)Glc(ßl-l) [GQ1b]
[1]; 24 hours, 0.01 µg/ml
  Number of Cells Formed with Axis-cylinder Process: 174
  Ratio of Cells Formed with Axis-cylinder Process: 51.8%
  Total Number of Cells: 336
  Length of Axis-cylinder Process: 88.5 ± 5.00 µm/cell
  Number of Axis-cylinder Process: 1.3 ± 0.05 per cell
[1]; 24 hours, 0.1 µg/ml
  Number of Cells Formed with Axis-cylinder Process: 159
  Ratio of Cells Formed with Axis-cylinder Process: 58.0%
  Total Number of Cells: 331
  Length of Axis-cylinder Process: 86.0 ± 4.72 µm/cell
  Number of Axis-cylinder Process: 1.3 ± 0.04 per cell
[1]; 24 hours, 1 µg/ml
  Number of Cells Formed with Axis-cylinder Process: 157
  Ratio of Cells Formed with Axis-cylinder Process: 51.0%
  Total Number of Cells: 308
  Length of Axis-cylinder Process: 97.6 ± 4.95 µm/cell
  Number of Axis-cylinder Process: 1.4 ± 0.05 per cell
[1]; 24 hours, 10 µg/ml
  Number of Cells Formed with Axis-cylinder Process: 205
  Ratio of Cells Formed with Axis-cylinder Process: 63.9%
  Total Number of Cells: 321
  Length of Axis-cylinder Process: 114.9 ± 5.98 µm/cell
  Number of Axis-cylinder Process: 1.3 ± 0.06 per cell
[1]; 24 hours, 100 µg/ml
  Number of Cells Formed with Axis-cylinder Process: U.C.
  Total Number of Cells: U.C.
  Length of Axis-cylinder Process: U.C.
  Number of Axis-cylinder Process: U.C.
[1]; 48 hours, 0.01 µg/ml
  Number of Cells Formed with Axis-cylinder Process: 158
  Ratio of Cells Formed with Axis-cylinder Process: 42.6%
  Total Number of Cells: 371
  Length of Axis-cylinder Process: 100.4 ± 5.76 µm/cell
  Number of Axis-cylinder Process: 1.5 ± 0.06 per cell
[1]; 48 hours, 0.1 µg/ml
  Number of Cells Formed with Axis-cylinder Process: 153
  Ratio of Cells Formed with Axis-cylinder Process: 44.1%
  Total Number of Cells: 347
  Length of Axis-cylinder Process: 90.4 ± 6.06 µm/cell
  Number of Axis-cylinder Process: 1.2 ± 0.04 per cell
[1]; 48 hours, 1 µg/ml
  Number of Cells Formed with Axis-cylinder Process: 182
  Ratio of Cells Formed with Axis-cylinder Process: 47.4%
  Total Number of Cells: 384
  Length of Axis-cylinder Process: 106.5 ± 6.40 µm/cell
  Number of Axis-cylinder Process: 1.3 ± 0.04 per cell
[1]; 48 hours, 10 µg/ml
  Number of Cells Formed with Axis-cylinder Process: 214
  Ratio of Cells Formed with Axis-cylinder Process: 61.8%
  Total Number of Cells: 346
  Length of Axis-cylinder Process: 122.5 ± 6.99 µm/cell
  Number of Axis-cylinder Process: 1.3 ± 0.04 per cell
[1]; 48 hours, 100 µg/ml
  Number of Cells Formed with Axis-cylinder Process: U.C.
  Total Number of Cells: U.C.
  Length of Axis-cylinder Process: U.C.
  Number of Axis-cylinder Process: U.C.

## Gal, (ßl-3) GalNAc (ßl-4) NAcNeu(α2-3))Gal(ßl-4)Glc(ßl-l)Ceramide [GM1]
[2]; 2W after transplantation
  Average of Rotational Movement of Rats (Average + S.D.): 7.6+3.6
  Number of Rotational Movement of Rats: 3.7 and 10.9 and 8.2
[2]; [3]
  Average of Rotational Movement of Rats (Average + S.D.): 9.8+4.4
  Number of Rotational Movement of Rats: 14.8 and 6.9 and 7.6
[2]; [4]
  Average of Rotational Movement of Rats (Average + S.D.): 9.0+4.1
  Number of Rotational Movement of Rats: 12.5 and 10.1 and 4.5
[1]; 24 hours, 0.01 µg/ml
  Number of Cells Formed with Axis-cylinder Process: 145
  Ratio of Cells Formed with Axis-cylinder Process: 43.4%
  Total Number of Cells: 334
  Length of Axis-cylinder Process: 94.9 ± 6.64 µm/cell
  Number of Axis-cylinder Process: 1.4 ± 0.05 per cell
[1]; 24 hours, 0.1 µg/ml
  Number of Cells Formed with Axis-cylinder Process: 142
  Ratio of Cells Formed with Axis-cylinder Process: 47.8%
  Total Number of Cells: 297
  Length of Axis-cylinder Process: 101.1 ± 5.09 µm/cell
  Number of Axis-cylinder Process: 1.4 ± 0.06 per cell
[1]; 24 hours, 1 µg/ml
  Number of Cells Formed with Axis-cylinder Process: 140
  Ratio of Cells Formed with Axis-cylinder Process: 42.2%
  Total Number of Cells: 332
  Length of Axis-cylinder Process: 109.7 ± 6.44 µm/cell
  Number of Axis-cylinder Process: 1.4 ± 0.06 per cell
[1]; 24 hours, 10 µg/ml
  Number of Cells Formed with Axis-cylinder Process: 149
  Ratio of Cells Formed with Axis-cylinder Process: 45.8%
  Total Number of Cells: 325
  Length of Axis-cylinder Process: 89.3± 4.77 µm/cell
  Number of Axis-cylinder Process: 1.4 ± 0.05 per cell
[1]; 24 hours, 100 µg/ml
  Number of Cells Formed with Axis-cylinder Process: 172
  Ratio of Cells Formed with Axis-cylinder Process: 55.5%
  Total Number of Cells: 310
  Length of Axis-cylinder Process: 90.5 ± 3.88 µm/cell
  Number of Axis-cylinder Process: 1.8 ± 0.05 per cell
[1]; 48 hours, 0.01 µg/ml
  Number of Cells Formed with Axis-cylinder Process: 194
  Ratio of Cells Formed with Axis-cylinder Process: 58.3%
  Total Number of Cells: 333
  Length of Axis-cylinder Process: 93.7 ± 5.07 µm/cell
  Number of Axis-cylinder Process: 1.4 ± 0.05 per cell
[1]; 48 hours, 0.1 µg/ml
  Number of Cells Formed with Axis-cylinder Process: 156
  Ratio of Cells Formed with Axis-cylinder Process: 44.7%
  Total Number of Cells: 349
  Length of Axis-cylinder Process: 108.8 ± 5.97 µm/cell
  Number of Axis-cylinder Process: 1.4 ± 0.06 per cell
[1]; 48 hours, 1 µg/ml
  Number of Cells Formed with Axis-cylinder Process: 211
  Ratio of Cells Formed with Axis-cylinder Process: 59.9%
  Total Number of Cells: 352
  Length of Axis-cylinder Process: 109.2 ± 6.09 µm/cell
  Number of Axis-cylinder Process: 1.3 ± 0.04 per cell
[1]; 48 hours, 10 µg/ml
  Number of Cells Formed with Axis-cylinder Process: 205
  Ratio of Cells Formed with Axis-cylinder Process: 62.1%
  Total Number of Cells: 330
  Length of Axis-cylinder Process: 113.8 ± 5.49 µm/cell
  Number of Axis-cylinder Process: 1.3 ± 0.04 per cell
[1]; 48 hours, 100 µg/ml
  Number of Cells Formed with Axis-cylinder Process: 193
  Ratio of Cells Formed with Axis-cylinder Process: 60.9%
  Total Number of Cells: 317
  Length of Axis-cylinder Process: 98.9 ± 5.22 µm/cell
  Number of Axis-cylinder Process: 1.5 ± 0.05 per cell
